Patent EP3221371B1, “MONOLITHS” (Monolythix, Inc., priority 2014, dated 2016)

Test system: fluorescently-labeled cell wall material
Test: EnzChek Lysozyme Assay of covalently grafted lysozyme
Assay type: biochemical
Conditions: one hour at 37 °C, compared with lysozyme standard dilution series (Figure 5)
Procedure: After covalently grafting lysozyme to a small block of carboxy monolith polymeric matrix, the sample was placed into a solution of fluorescently-labeled cell wall material (EnzChek® Lysozyme Assay Kit) and incubated for one hour at 37 °C in a plate reader, along with a lysozyme standard dilution series.
A fresh solution of 160 mg/mL EDAC stock in dry DMSO was prepared. A lysozyme mix was prepared from 20 µL of a 10 mg/mL solution of lysozyme in 1x PBS, 28 µL of a 200 mM MES solution at pH 7.0, and 15 µL water.
7 µL 160 mg/mL EDAC was spotted onto a single 20 mg disc formed from monolith material, (1:2:1 TEGDMA:EGDMA:HEMA plus 2.0% MAA). The prepared lysozyme mix (63 µL) was then added and the sample incubated at room temperature for 1 h. A glycine solution (10 µl; 30 mg/mL solution in 100 mM MES solution at pH 7.0) was then added and the sample incubated for 15 min at room temperature. The disc was then rinsed in water and stored at 4 °C until use.
To test the activity of the immobilized enzyme, a lysozyme-coupled disc and an untreated control disc were each cut into equal 1/8 size pie-shaped segments. Two pieces of each were then added to two wells of a microwell plate and lysozyme substrate was added. […] Fluorescence was read at regular intervals to determine the extent of carbohydrate breakdown and consequent lysozyme activity.

**Q.** With “lysozyme chip: Lysozyme covalently grafted with EDAC to carboxy monolith disc (1:2:1 TEGDMA:EGDMA:HEMA plus 2.0% MAA)” as the substance, how does the “final fluorescence signal intensity” value read?
**A.** Its value is “greater than the highest standard”.
